Reference: patent US8383631B2, “1,6-disubstituted-3-amino-4,5,6,7-tetrahydro-1H-pyrazolo[3,4-C]pyridin-7-one compounds and preparation thereof” (Korea Institute of Science and Technology, priority 2010, dated 2013)

Tests used:
Assay type in all cases: cell-based
HT-29 = assay: SRB anticancer activity screening, HT-29; parameters: Inhibition % for cancer cells HT-29: dose or concentration left out as unconfirmed; conditions: HT-29 human colon adenocarcinoma, 48 hours
Method: (§1) A-549 (human lung carcinoma), HT-29 (human colon adenocarcinoma), DU145 (human prostate cancer), SK-MEL-2 (human malignant melanoma) and SK-OV-3 (human ovary malignant ascites) cells were used to evaluate the anticancer activity of the test compounds. All the cancer cells are all tumors cells derived from human and were acquired from the Korean Cell Line Bank. RP MI 1640 medium containing 10% fetal bovine serum was used as a culture medium. Cell culturing was performed in a constant-temperature, constant-humidity incubator (37° C., 5% CO2). Subculturing was performed once in 3 days, using 0.25% trypsin-1 mM EDTA.
(§2) The sulforhodamine B ([…]) assay, which was developed in 1989 by the National Cancer Institute to measure in vitro anticancer activity of drugs, was employed.
(§3) The subcultured cells were transferred using trypsin-EDTA solution to a 96-well microplate, at 5×10^3 cells per well, and then cultured in a CO2 incubator for 24 hours. After removing the medium and adding a solution of the test compound (100 μL) diluted 4-fold, the cells were cultured for 48 hours. […] After completely lysing the cells by adding 10 mM Trizma base (pH 10.3, 200 μL) to each well, absorbance was measured at 520 nm.
(§4) In order to evaluate the activity of the test compound for the cancer cells, GI50 was calculated according to Equation 1 or 2. […]
(§5) Then, IC50 value was calculated from the inhibitory concentration.

HCT-116 = assay: SRB anticancer activity screening, HCT-116; parameters: Inhibition % for cancer cells HCT-116: dose or concentration left out as unconfirmed; conditions: HCT-116 human colon cancer, 48 hours
DU-145 = assay: SRB anticancer activity screening, DU-145; parameters: Inhibition % for cancer cells DU-145: dose or concentration left out as unconfirmed; conditions: DU-145 human prostate cancer, 48 hours
Method: as §1, §2, §3, §4, §5

A375P = assay: SRB anticancer activity screening, A375P; parameters: Inhibition % for cancer cells A375P: dose or concentration left out as unconfirmed; conditions: A375P human melanoma cancer, 48 hours

| IC50 (HT-29; read-out: IC50 (μM) for cancer cells HT-29) [µM] | IC50 (HCT-116; read-out: IC50 (μM) for cancer cells HCT-116) [µM] | IC50 (DU-145; read-out: IC50 (μM) for cancer cells DU-145) [µM] | IC50 (A375P; read-out: IC50 (μM) for cancer cells A375P) [µM] | Structure (SMILES) | Inhibition % for cancer cells HT-29 (HT-29) [%] | Inhibition % for cancer cells HCT-116 (HCT-116) [%] | Inhibition % for cancer cells DU-145 (DU-145) [%] | Inhibition % for cancer cells A375P (A375P) [%] |
| --- | --- | --- | --- | --- | --- | --- | --- | --- |
|  |  |  |  | Cc1ccc(N2CCc3c(N)nn(C(=O)CCN4CCN(c5ccc(Cl)cc5)CC4)c3C2=O)cc1 [Compound 9, 3-amino-1-[{4-(4-chlorophenyl)piperazin-1-yl}propanoyl]-6-N-(p-tolyl)-4,5,6,7-tetrahydro-1-H-pyrazolo[3,4-c]pyridin-7-one] | 90.54 | 92.19 | 80.02 | 95.03 |
| 0.15 ± 0.01 | 0.34 ± 0.01 | 0.4 ± 0.02 | 0.34 ± 0.03 | Cc1ccc(N2CCN(CCC(=O)n3nc(N)c4c3C(=O)N(Cc3ccccc3)CC4)CC2)c(C)c1 [Compound 17, 3-amino-1-[{4-(2,4-dimethylphenyl)piperazin-1-yl}propanoyl]-6-N-benzyl-4,5,6,7-tetrahydro-1H-pyrazolo[3,4-c]pyridin-7-one] |  |  |  |  |
